Measured values: paper PMC2662379 (Biochemistry, 2008)

Columns and labels:
[1] = molecular target: alkaline phosphatase (AP) (Escherichia coli, UniProt P00634, R188S); test: steady-state hydrolysis kinetics; type: biochemical
[2] = molecular target: NPP (Xanthomonas axonopodis nucleotide phosphodiesterase/pyrophosphatase) (Xanthomonas citri, UniProt A0A0U5FM15); test: inhibition of MepNPP hydrolysis, absorbance of 4-nitrophenolate at […] nm; type: biochemical

alkaline phosphatase (AP), sequence (P00634 23-471 R188S): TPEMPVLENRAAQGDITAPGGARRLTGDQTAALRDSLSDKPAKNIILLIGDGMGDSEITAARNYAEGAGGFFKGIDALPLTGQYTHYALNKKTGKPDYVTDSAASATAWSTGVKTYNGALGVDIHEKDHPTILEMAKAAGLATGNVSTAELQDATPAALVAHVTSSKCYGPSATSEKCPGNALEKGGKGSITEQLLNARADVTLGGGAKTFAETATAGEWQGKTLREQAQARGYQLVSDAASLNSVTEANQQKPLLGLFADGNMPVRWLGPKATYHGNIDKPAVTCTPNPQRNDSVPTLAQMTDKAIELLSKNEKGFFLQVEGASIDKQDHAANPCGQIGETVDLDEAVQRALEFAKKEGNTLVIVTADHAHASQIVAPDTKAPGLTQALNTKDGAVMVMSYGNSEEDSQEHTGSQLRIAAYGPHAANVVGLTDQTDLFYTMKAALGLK

| Compound | kcat/KM [1] | Ki [2] |
| --- | --- | --- |
| COP(O)(=S)Oc1ccc([N+](=O)[O-])cc1 (racemic) [MepNPPS, methyl p-nitrophenyl phosphorothioate] | 0.0011 M⁻¹ s⁻¹ | – |
| Nc1ncnc2c1ncn2[C@@H]1O[C@H](COP(=O)(O)O)[C@@H](O)[C@H]1O [AMP, adenosine monophosphate] | – | 318 ± 24 µM |
